Results published in US20130184257A1, “PIPERIDINYL-SUBSTITUTED LACTAMS AS GPR119 MODULATORS” (priority 2010, published 2013).

Tested on: modified version of the GPR119 receptor (94% identity to human receptor) stably expressed in HEK-293 cells
Experiment: cAMP Production Assay (LANCE cAMP kit, TR-FRET)
Format: cell-based
Settings: for cAMP production in HEK-293 cells: HEK-293 cells expressing modified GPR119, test compounds 0.2 nM to 10 μM, one-hour incubation at ambient temperature; for Fold over baseline: increase in cAMP relative to basal levels, 1.5-fold or greater = agonist activity
Summary of the method: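 Doxycycline-induced (1 μg/mL, overnight) HEK-293 cells expressing modified GPR119 were thawed, 2000 cells/well, and exposed to compounds (0.2 nM-10 μM final, 0.5% DMSO) for 1 h at ambient temperature in HBSS/HEPES/BSA. cAMP was measured by LANCE TR-FRET against a standard curve. Agonism was defined as ≥1.5-fold over basal.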

Row | Compound | cAMP production in HEK-293 cells | Fold over baseline
1 | CS(=O)(=O)c1cc(F)c(N[C@H]2CCN(C3CCN(c4nc(C(F)(F)F)no4)CC3)C2=O)c(F)c1 [Example 60, (S)-3-((2,6-difluoro-4-(methylsulfonyl)phenyl)amino)-1-(1-(3-(trifluoromethyl)-1,2,4-oxadiazol-5-yl)piperidin-4-yl)pyrrolidin-2-one] | 18.1 nmol | 3.8
2 | CC(F)(F)c1noc(N2CCC(N3CCC[C@H](Nc4cc(F)c(S(C)(=O)=O)cc4F)C3=O)CC2)n1 [Example 61, (S)-3-((2,5-difluoro-4-(methylsulfonyl)phenyl)amino)-1′-(3-(1,1-difluoroethyl)-1,2,4-oxadiazol-5-yl)-[1,4′-bipiperidin]-2-one] | 13.6 nmol | 2.2
3 | CC(F)(F)c1noc(N2CCC(N3CCC[C@H](Nc4c(F)cc(S(C)(=O)=O)cc4F)C3=O)CC2)n1 [Example 62, (S)-3-((2,6-difluoro-4-(methylsulfonyl)phenyl)amino)-1′-(3-(1,1-difluoroethyl)-1,2,4-oxadiazol-5-yl)-[1,4′-bipiperidin]-2-one] | 16.2 nmol | 2.6
4 | CC(F)(F)c1noc(N2CCC(N3CC[C@H](Oc4cc(F)c(S(C)(=O)=O)cc4F)C3=O)CC2)n1 [Example 63, (S)-3-(2,5-difluoro-4-(methylsulfonyl)phenoxy)-1-(1-(3-(1,1-difluoroethyl)-1,2,4-oxadiazol-5-yl)piperidin-4-yl)pyrrolidin-2-one] | 21.6 nmol | 3.6
5 | CC(F)(F)c1nc(N2CCC(N3CC[C@H](Nc4cc(F)c(S(C)(=O)=O)cc4F)C3=O)CC2)no1 [Example 64, (S)-3-((2,5-difluoro-4-(methylsulfonyl)phenyl)amino)-1-(1-(5-(1,1-difluoroethyl)-1,2,4-oxadiazol-3-yl)piperidin-4-yl)pyrrolidin-2-one] | 15.8 nmol | 3.3
6 | CC(F)(F)c1nc(N2CCC(N3CC[C@H](Nc4c(F)cc(S(C)(=O)=O)cc4F)C3=O)CC2)no1 [Example 65, (S)-3-((2,6-difluoro-4-(methylsulfonyl)phenyl)amino)-1-(1-(5-(1,1-difluoroethyl)-1,2,4-oxadiazol-3-yl)piperidin-4-yl)pyrrolidin-2-one] | 16.1 nmol | 2.6
7 | CS(=O)(=O)c1cc(F)c(O[C@@H]2CCCN(C3CCN(c4noc(C(F)(F)F)n4)CC3)C2=O)cc1F [Example 67, (R)-3-(2,5-difluoro-4-(methylsulfonyl)phenoxy)-1′-(5-(trifluoromethyl)-1,2,4-oxadiazol-3-yl)-[1,4′-bipiperidin]-2-one] | 43.6 nmol | 3.6
